This is an account of results in ChEMBL document CHEMBL1201862, “PubChem BioAssay data set” (2004).

Calls of active or inactive are those of the source. Some results are limits rather than exact numbers.

The IC50 is the concentration that inhibits the measured activity by half. By CC50 is commonly meant the concentration that lowers cell viability or growth by half. The term Ki denotes the equilibrium dissociation constant of an inhibitor or competing ligand from its target. By AC50 is commonly meant the midpoint of the concentration-response curve, whichever way the signal moves.

One experiment deals with Major prion protein (Homo sapiens, UniProt P04156). Format: functional, cell-based.
A short description of experiment [1]: cells.
Experiment [2] addresses T1, Nuclear receptor subfamily 0 group B member 1 (Homo sapiens, UniProt P51843).
T1 sequence (P51843 whole entry): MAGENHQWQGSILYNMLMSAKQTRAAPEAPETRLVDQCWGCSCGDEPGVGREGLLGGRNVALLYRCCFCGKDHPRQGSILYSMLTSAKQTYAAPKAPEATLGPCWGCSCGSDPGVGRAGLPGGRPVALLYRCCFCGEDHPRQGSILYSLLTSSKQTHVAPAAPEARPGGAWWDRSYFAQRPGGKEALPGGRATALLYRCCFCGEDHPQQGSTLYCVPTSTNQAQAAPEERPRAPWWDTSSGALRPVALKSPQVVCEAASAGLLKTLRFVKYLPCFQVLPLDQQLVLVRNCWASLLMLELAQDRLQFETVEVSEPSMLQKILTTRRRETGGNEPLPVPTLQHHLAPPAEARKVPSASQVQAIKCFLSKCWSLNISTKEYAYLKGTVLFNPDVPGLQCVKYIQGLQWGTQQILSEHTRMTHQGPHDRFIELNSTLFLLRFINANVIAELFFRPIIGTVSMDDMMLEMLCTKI
Format: functional, cell-based.

The nature of experiment [3]: cells. The class given is functional, cell-based.
Experiment [4] deals with T2, Oxysterols receptor LXR-beta (Homo sapiens, UniProt P55055).
T2 sequence (P55055 whole entry): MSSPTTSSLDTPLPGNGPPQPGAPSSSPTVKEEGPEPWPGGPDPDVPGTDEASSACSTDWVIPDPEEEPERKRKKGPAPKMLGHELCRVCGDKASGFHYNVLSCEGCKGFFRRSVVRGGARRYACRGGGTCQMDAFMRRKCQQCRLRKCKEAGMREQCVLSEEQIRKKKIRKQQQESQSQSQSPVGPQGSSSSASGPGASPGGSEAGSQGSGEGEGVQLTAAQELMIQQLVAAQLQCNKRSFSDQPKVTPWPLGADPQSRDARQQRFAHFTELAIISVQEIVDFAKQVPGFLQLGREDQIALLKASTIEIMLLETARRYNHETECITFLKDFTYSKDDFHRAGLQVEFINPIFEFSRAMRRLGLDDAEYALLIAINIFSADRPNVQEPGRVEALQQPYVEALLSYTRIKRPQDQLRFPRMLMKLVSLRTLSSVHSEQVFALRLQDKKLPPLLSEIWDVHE
The class given is functional, cell-based.

Experiment [5] in a line: cells. This is another data set of the same source.
Experiment [6] addresses Peroxisome proliferator-activated receptor gamma/Nuclear receptor coactivator 2 (Homo sapiens, UniProt P37231). The experiment in a line: TR-FRET dose response biochemical High Throughput Screening assay for agonists of the steroid receptor coactivator 2 (SRC-2) recruitment by the peroxisome proliferator-activated receptor gamma (PPAR gamma): non-selective agonists. [Related pubchem assays: 1297, 1032 ]. Format: functional. (TR-FRET usually uses a lanthanide donor and a delayed reading to cut background.)

The target in experiment [7] is Peroxisome proliferator-activated receptor gamma/Nuclear receptor coactivator 1 (Homo sapiens, UniProt P37231). The experiment in a line: TR-FRET dose response biochemical High Throughput Screening assay for agonists of the steroid receptor coactivator 1 (SRC-1) recruitment by the peroxisome proliferator-activated receptor gamma (PPAR gamma): non-selective agonists. [Related pubchem assays (depositor defined):AID1300, AID1808, AID504735, AID631]. Format: protein assay.

Experiment [8] has as its target Mitogen-activated protein kinase 10 (Homo sapiens, UniProt P53779). The experiment in a line: Dose response biochemical screening assay for inhibitors of c-Jun N-Terminal Kinase 3 (JNK3). [Related pubchem assays: 746 ].
Experiment [9] addresses Peroxisome proliferator-activated receptor gamma/Nuclear receptor coactivator 3 (Homo sapiens, UniProt P37231). The experiment in a line: TR-FRET dose response biochemical High Throughput Screening assay for agonists of the steroid receptor coactivator 3 (SRC-3) recruitment by the peroxisome proliferator-activated receptor gamma (PPAR gamma): non-selective agonists. [Related pubchem assays: 1301 (Confirmation screen.), 1048 (Primary screen.)]. The class given is functional.

Experiment [10] in a line: HEp-2 cell cytotoxicity, dose response, cytotoxicity control for RSV inhibitor project, HTS (AID 2410). Format: functional. Particulars: human respiratory syncytial virus.
Another experiment has as its target fMet-Leu-Phe receptor (Homo sapiens, UniProt P21462). The experiment can be described thus: FPR ligands, dose response (AID 519). Format: functional.
Experiment [11] has as its system BJ. The experiment can be described thus: cytotoxicity toward BJ-TERT fibroblasts, dose response, cell-based, RAS-independent, luminescence (AID 1933). The class given is functional. As to conditions: Homo sapiens.
In the next experiment the test system is INS1. The experiment can be described thus: beta cell apoptosis inhibitors, cytokine rescue, dose response, luminescence, retest (AID 449756).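 Note: cell death triggered by IL-1 beta plus TNF-alpha plus IFN-gamma mixture; protective hits raise ATP signal compared with cytokine alone wells.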 The class given is functional, cell-based. Particulars: Rattus norvegicus.
Experiment [12] is described as follows: Luminescence Cell-Based Dose Response HTS to Identify Inhibitors of 5'UTR Stem-Loop Driven Prion Protein mRNA Translation in H4 Neuroglioblastoma Cells. [Related pubchem assays: 1827 (Project Summary), 1813 (Primary HTS)]. The class given is functional.
Experiment [13] in a line: inhibitors of firefly luciferase expression or activity, dose response, H4 neuroglioma cells, luminescence (AID 1990). Format: functional, cell-based.
In experiment [14] the test system is BJ. The experiment in a line: cells. As to conditions: Homo sapiens. Format: functional, cell-based.
For experiment [15], the system named is BJ. The experiment in a line: cytotoxicity toward Ras-transformed BJeLR fibroblasts, dose response, cell-based, alamar blue fluorescence, cherrypicked samples (AID 2631).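 Note: confirmatory dose-response assay in RAS-dependent BJ fibroblasts engineered with TERT, LT and ST, with cytotoxicity read by fluorescence.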 Format: functional. As to conditions: Homo sapiens. (In general: The colour change of resazurin is a common sign of viable cells or microbes.)
The test system of experiment [16] is BJ. The experiment can be described thus: cytotoxicity toward BJ-TERT-LT-ST fibroblasts, dose response, cell-based, RAS-independent, luminescence (AID 1935).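 Note: BJ fibroblasts immortalized with TERT plus LT and ST oncogenes.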 The class given is functional. As to conditions: Homo sapiens.
Experiment [17] can be described thus: cytotoxicity toward DRD oncogenic fibroblasts, dose response, cell-based, non-viral oncogenic, luminescence (AID 1934). The class given is functional. Particulars: Homo sapiens.
The nature of experiment [18]: HEK293T cell cytotoxicity, dose response, cytotoxicity control for HIV Vif inhibitor project, cherry-picks (AID 652208). Format: functional, cell-based.
In experiment [19] the target is T3, Corticotropin-releasing factor receptor 2/Corticotropin-releasing factor-binding protein (Homo sapiens, UniProt P24387+Q13324).
T3 sequence (Q13324 whole entry): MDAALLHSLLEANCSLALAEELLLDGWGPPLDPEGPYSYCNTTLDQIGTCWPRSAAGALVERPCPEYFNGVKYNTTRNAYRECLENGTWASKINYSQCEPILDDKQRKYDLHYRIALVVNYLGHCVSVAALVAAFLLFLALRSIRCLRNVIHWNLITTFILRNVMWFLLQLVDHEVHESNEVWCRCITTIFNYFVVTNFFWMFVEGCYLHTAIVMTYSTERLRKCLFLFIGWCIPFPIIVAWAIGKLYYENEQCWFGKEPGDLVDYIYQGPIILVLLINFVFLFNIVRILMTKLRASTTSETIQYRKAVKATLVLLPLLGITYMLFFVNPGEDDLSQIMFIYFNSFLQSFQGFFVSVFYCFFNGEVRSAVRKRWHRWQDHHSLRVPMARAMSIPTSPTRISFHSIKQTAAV
T3 sequence (P24387 whole entry): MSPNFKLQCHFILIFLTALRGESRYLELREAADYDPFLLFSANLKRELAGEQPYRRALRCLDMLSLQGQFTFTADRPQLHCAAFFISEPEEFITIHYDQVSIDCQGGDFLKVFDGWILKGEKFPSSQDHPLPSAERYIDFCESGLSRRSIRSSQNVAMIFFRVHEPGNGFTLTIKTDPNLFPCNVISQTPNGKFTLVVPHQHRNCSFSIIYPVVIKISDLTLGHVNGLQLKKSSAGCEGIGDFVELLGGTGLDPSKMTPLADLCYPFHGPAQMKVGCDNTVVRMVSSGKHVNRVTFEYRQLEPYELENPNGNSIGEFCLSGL
The experiment in a line: activators of CRF receptor 2 with binding protein – uHTS hits, confirmation (AID 602473). The class given is functional. As to conditions: read-out: EC50_Mean.

Experiment [20] concerns the target Long-chain-fatty-acid--AMP ligase FadD28 (Mycobacterium tuberculosis, UniProt P9WQ59). The experiment can be described thus: Fluorescence polarization aasay to screen for inhibitors that compete for the binding of FadD28 to a bisubstrate Measured in Biochemical System Using Plate Reader - 2147-01_Inhibitor_Dose_CherryPick_Activity. The class given is functional, Mycobacterium tuberculosis H37Rv. (In fluorescence polarisation assays a small probe gives low polarisation when free and higher when bound to something large.)

Experiment [21] is described as follows: cells. As to conditions: HEK293.
A short description of experiment [22]: HepG2 cell cytotoxicity, dose response, cytotoxicity control, ATP luminescence, cherry-pick, set 6 (AID 1053125). The class given is functional, cell-based.
A short description of experiment [23]: cells. Particulars: A549.
Experiment [24] can be described thus: HepG2 cell cytotoxicity, dose response, cytotoxicity control, plate reader, cherry-pick, antagonist series (AID 743416). The class given is functional, cell-based.
Experiment [25] in a line: A549 cell cytotoxicity, dose response, cytotoxicity control, plate reader, cherry-pick, antagonist series (AID 743412). Format: functional, cell-based.
A further experiment concerns the target Paired box protein Pax-8 (Homo sapiens, UniProt Q06710). The experiment can be described thus: inhibitors of PAX8-driven TPO luciferase reporter, dose response, RMG-I cells, cherry-pick (AID 687027).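 Note: luciferase reporter driven by Pax8 target thyroperoxidase promoter measured by SteadyGlo luminescence.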 Format: functional, cell-based.
Experiment [26] in a line: IGROV1 ovarian cancer cell cytotoxicity, dose response, PAX8 inhibitor project, plate reader, dry powder samples (AID 743043). The class given is functional, cell-based. As to conditions: IGROV-1.
Experiment [27] in a line: NIH:OVCAR-3 ovarian cancer cell cytotoxicity, dose response, PAX8 inhibitor project, plate reader, dry powder samples (AID 743044). Format: functional, cell-based.
Experiment [28] is described as follows: T. cruzi growth inhibition in host cells, dose response, cell-based, plate reader, dry powder, set 2 (AID 652275). The class given is functional.

For `O=C(c1ccc(F)cc1)c1cn(Cc2ccc(F)cc2)c2cc3c(cc2c1=O)OCCO3`, the IC50 on Major prion protein is 3.03 µM (active); in the experiment “cells [1]”, > 138 µM (inactive).

For the molecule `Cc1ccc(C(=O)Nc2ncccc2O)o1`, the IC50 in [2] was 24.7 µM (inactive); in the experiment “cells [3]”, > 67.6 µM (inactive).

For `CN1CCN(c2ccc(-c3cccc(NC(=O)COc4ccccc4)c3)nn2)CC1`, the IC50 (in experiment [2]; in the experiment “cells [3]”) was > 67.5 µM (inactive) throughout.

Turning to `c1ccc(-c2csc(Nc3ccc4c(c3)OCCO4)n2)cc1`, the EC50 (in [4]; in the experiment “cells [5]”) was > 67.5 µM (inactive) in each case.

`COc1ccc2c(Cl)c(C(N)=O)sc2c1`: the EC50 in [6] is 16.7 µM (not active); in experiment [7], > 79.4 µM (inactive); in experiment [9] it was > 79.4 µM (not active). The 50% inhibitory concentration (IC50) in experiment [8] is 68.3 µM (not active); at Major prion protein, 2.46 µM (active); in the experiment “cells [1]”, > 138 µM (inactive).

On to `Cc1nc2c(-c3ccc(F)cc3)c(C)nn2c(C)c1CCC(=O)NC(C)CCc1ccco1` (stereo not drawn), for which the CC50 in experiment [10] was > 50 µM (active). In addition, the Ki at fMet-Leu-Phe receptor was > 66.7 µM (inactive).

Regarding `CC1CN(S(=O)(=O)c2ccc(C(=O)NCCCn3ccnc3)cc2)CC(C)O1` (stereo not drawn), the EC50 in the experiment with BJ [11] is > 150 µM (not active); in experiment [12], 7.94 µM (active); in experiment [13], 11.1 µM (active); with BJ [14] it was 5.83 µM (inconclusive); in the experiment on BJ [15] it was 0.39 µM (active); in the experiment with BJ [16], 3.76 µM (inconclusive). For the same molecule, the EC50 in experiment [17] is 13.2 µM (active). Also, the AC50 with INS1 is 1.17 µM (active); in [18], > 52 µM (inactive).

Turning to `COc1ccc(C2C(C(=O)c3ccco3)=C(O)C(=O)N2CCc2ccccc2)cc1OC` (stereo not drawn), the Ki at fMet-Leu-Phe receptor is 36.9 µM (inactive).

As for `O=C1N=C(S)SC1=Cc1ccc(N(CCCl)CCCl)cc1`, the EC50 in experiment [19] was 5.45 µM (active). Besides, the AC50 in experiment [20] is 66.7 µM (active).

With `CC(=O)Nc1cccc(-c2ccnc3c2CC(C(=O)NCc2cccc(Cl)c2)O3)c1` (stereo not drawn), the AC50 in the experiment “cells [21]” was 40.1 µM (active); in experiment [22], > 52 µM (inactive); in “cells [23]”, > 52 µM (inactive).

As for `Cn1c(=O)c2cc(NC(=O)NCc3ccccc3)ccc2n1C/C=C/c1ccccc1`, the AC50 in experiment [24] is 36.9 µM (active); in [25] it was 18.2 µM (active).

With `C[C@H](CO)N1C[C@H](C)[C@H](CN(C)Cc2ccc(C(F)(F)F)cc2)OCCCC[C@H](C)Oc2ccc(NC(=O)Nc3ccc4c(c3)OCO4)cc2C1=O`, the AC50 is 5.42 µM (active) on Paired box protein Pax-8, 40.3 µM (active) in experiment [26] and 28.6 µM (active) in experiment [27].

For `COc1cccc(CN(C)C[C@H]2Oc3c(NC(=O)c4ccncc4)cccc3C(=O)N([C@@H](C)CO)C[C@@H]2C)c1`, in [28], the AC50 is 0.0568 µM (active).

With `CCN(C)C[C@H]1Oc2c(NC(=O)c3ccncc3)cccc2C(=O)N(C(C)C)[C@@H]1C`, in [28], the AC50 is 0.0842 µM (active).
